Results reported in patent US8802597B2, “Herbicidal pyrimidines” (E I du Pont de Nemours and Company, priority 2003, dated 2014).

Experiments:
Assay type in all cases: in vivo
[1] = test system: Surinam grass (Brachiaria decumbens); assay: Test B pre/postemergence
Description: (§1) Seeds selected from barnyardgrass (Echinochloa crus-galli), Surinam grass (Brachiaria decumbens), cocklebur (Xanthium strumarium), corn (Zea mays), crabgrass (Digitaria sanguinalis), giant foxtail (Setaria faberii), lambsquarters (Chenopodium album), morningglory (Ipomoea coccinea), pigweed (Amaranthus retroflexus), velvetleaf (Abutilon theophrasti), and wheat (Triticum aestivum) were planted and treated preemergence with test chemicals formulated in a non-phytotoxic solvent mixture which included a surfactant.
(§2) At the same time, plants selected from these crop and weed species and also blackgrass (Alopecurus myosuroides) and wild oat (Avena fatua) were treated with postemergence applications of test chemicals formulated in the same manner. Plants ranged in height from 2 to 18 cm (1- to 4-leaf stage) for postemergence treatments. Plant species in the flooded paddy test consisted of rice (Oryza sativa), umbrella sedge (Cyperus difformis), duck salad (Heteranthera limosa) and barnyardgrass (Echinochloa crus-galli) grown to the 2-leaf stage for testing. Treated plants and controls were maintained in a greenhouse for 13 to 15 days, after which time all species were compared to controls and visually evaluated. Plant response ratings, summarized in Table B, are based on a scale of 0 to 100 where 0 is no effect and 100 is complete control. A dash (-) response means no test result.

[2] = test system: barnyardgrass (Echinochloa crus-galli); assay: Test B pre/postemergence
Description: as §1, §2

[3] = test system: cocklebur (Xanthium strumarium); assay: Test B pre/postemergence
Description: as §1, §2

corn (Zea mays) = assay: Test B pre/postemergence
Description: as §1, §2

[4] = test system: crabgrass (Digitaria sanguinalis); assay: Test B pre/postemergence
Description: as §1, §2

[5] = test system: giant foxtail (Setaria faberii); assay: Test B pre/postemergence
Description: as §1, §2

[6] = test system: lambsquarters (Chenopodium album); assay: Test B pre/postemergence; details: Postemergence; for Lambsquarters plant response rating: 125 g ai/ha, scale 0 to 100 (0 no effect, 100 complete control); for Plant response rating, Lambsquarters: 500 g ai/ha, scale 0 to 100
Description: as §1, §2

[7] = test system: morningglory (Ipomoea coccinea); assay: Test B pre/postemergence
Description: as §1, §2

[8] = test system: pigweed (Amaranthus retroflexus); assay: Test B pre/postemergence
Description: as §1, §2

[9] = test system: velvetleaf (Abutilon theophrasti); assay: Test B pre/postemergence
Description: as §1, §2

[10] = test system: wheat (Triticum aestivum); assay: Test B pre/postemergence
Description: as §1, §2

[11] = test system: blackgrass (Alopecurus myosuroides); assay: Test B postemergence; details: for Blackgrass plant response rating: 125 g ai/ha, scale 0 to 100 (0 no effect, 100 complete control); for Plant response rating, Blackgrass: 500 g ai/ha, scale 0 to 100
Description: as §1, §2

wild oat (Avena fatua) = assay: Test B postemergence; details: for Oat, Wild plant response rating: 125 g ai/ha, scale 0 to 100 (0 no effect, 100 complete control); for Plant response rating, Oat, Wild: 500 g ai/ha, scale 0 to 100
Description: as §1, §2

[12] = Postemergence, 125 g ai/ha, scale 0 to 100 (0 no effect, 100 complete control)
[13] = Postemergence, 500 g ai/ha, scale 0 to 100
[14] = Preemergence, 125 g ai/ha, scale 0 to 100 (0 no effect, 100 complete control)
[15] = Preemergence, 500 g ai/ha, scale 0 to 100 (0 no effect, 100 complete control)

CCOC(=O)c1nc(C2CC2)nc(NOCC(=O)O)c1Br [Compound 125]
60: Plant response rating, Cocklebur [3, 13] | Lambsquarters plant response rating [6] | Pigweed plant response rating [8, 12] | Plant response rating, Pigweed [8, 13]
20: Crabgrass plant response rating [4, 12] | Plant response rating, Blackgrass [11] | Plant response rating, Oat, Wild (wild oat (Avena fatua))
50: Plant response rating, Velvetleaf [9, 13]
100: Plant response rating, Crabgrass [4, 15] | Plant response rating, Morningglory [7, 15]
40: Cocklebur plant response rating [3, 12] | Plant response rating, Foxtail, Giant [5, 13]
90: Plant response rating, Cocklebur [3, 15] | Plant response rating, Morningglory [7, 13] | Plant response rating, Pigweed [8, 15] | Plant response rating, Velvetleaf [9, 15]
30: Plant response rating, Cocklebur [3, 14] | Plant response rating, Crabgrass [4, 13] | Plant response rating, Morningglory [7, 14] | Plant response rating, Pigweed [8, 14]
70: Plant response rating, Barnyardgrass [2, 13] | Plant response rating, Lambsquarters [6] | Morningglory plant response rating [7, 12]
10: Plant response rating, Surinam Grass [1, 13] | Plant response rating, Velvetleaf [9, 14]
0: Surinam Grass plant response rating [1, 12] | Plant response rating, Surinam Grass [1, 14] | Plant response rating, Surinam Grass [1, 15] | Barnyardgrass plant response rating [2, 12] | Plant response rating, Barnyardgrass [2, 14] | Corn plant response rating (corn (Zea mays); [12]) | Plant response rating, Corn (corn (Zea mays); [13]) | Plant response rating, Corn (corn (Zea mays); [14]) | Plant response rating, Corn (corn (Zea mays); [15]) | Plant response rating, Crabgrass [4, 14] | Foxtail, Giant plant response rating [5, 12] | Plant response rating, Foxtail, Giant [5, 14] | Plant response rating, Foxtail, Giant [5, 15] | Velvetleaf plant response rating [9, 12] | Wheat plant response rating [10, 12] | Plant response rating, Wheat [10, 13] | Plant response rating, Wheat [10, 14] | Plant response rating, Wheat [10, 15] | Blackgrass plant response rating [11] | Oat, Wild plant response rating (wild oat (Avena fatua))

CCOC(=O)c1nc(C2CC2)nc(NOC(C)(C)C)c1Br [Compound 55]
70: Plant response rating, Cocklebur [3, 14] | Lambsquarters plant response rating [6] | Pigweed plant response rating [8, 12] | Plant response rating, Wheat [10, 15]
0: Surinam Grass plant response rating [1, 12] | Plant response rating, Surinam Grass [1, 13] | Plant response rating, Surinam Grass [1, 14] | Barnyardgrass plant response rating [2, 12] | Plant response rating, Barnyardgrass [2, 14] | Corn plant response rating (corn (Zea mays); [12]) | Plant response rating, Corn (corn (Zea mays); [14]) | Plant response rating, Corn (corn (Zea mays); [15]) | Crabgrass plant response rating [4, 12] | Plant response rating, Foxtail, Giant [5, 14] | Plant response rating, Foxtail, Giant [5, 15] | Wheat plant response rating [10, 12] | Plant response rating, Wheat [10, 13] | Plant response rating, Wheat [10, 14] | Oat, Wild plant response rating (wild oat (Avena fatua))
90: Plant response rating, Cocklebur [3, 15] | Plant response rating, Lambsquarters [6] | Plant response rating, Morningglory [7, 13] | Plant response rating, Velvetleaf [9, 15]
80: Plant response rating, Cocklebur [3, 13] | Morningglory plant response rating [7, 12] | Plant response rating, Morningglory [7, 14] | Plant response rating, Pigweed [8, 13] | Plant response rating, Pigweed [8, 14]
10: Velvetleaf plant response rating [9, 12]
20: Cocklebur plant response rating [3, 12] | Plant response rating, Corn (corn (Zea mays); [13]) | Foxtail, Giant plant response rating [5, 12] | Plant response rating, Foxtail, Giant [5, 13] | Plant response rating, Oat, Wild (wild oat (Avena fatua))
100: Plant response rating, Morningglory [7, 15] | Plant response rating, Pigweed [8, 15]
40: Plant response rating, Blackgrass [11]
60: Plant response rating, Barnyardgrass [2, 15] | Plant response rating, Crabgrass [4, 15]
50: Plant response rating, Surinam Grass [1, 15] | Plant response rating, Barnyardgrass [2, 13] | Plant response rating, Crabgrass [4, 14] | Plant response rating, Velvetleaf [9, 14]
30: Plant response rating, Crabgrass [4, 13] | Plant response rating, Velvetleaf [9, 13] | Blackgrass plant response rating [11]

CCOC(=O)c1nc(C2CC2)nc(NOC)c1Br [Compound 52]
50: Plant response rating, Pigweed [8, 15] | Plant response rating, Velvetleaf [9, 13] | Plant response rating, Blackgrass [11]
0: Surinam Grass plant response rating [1, 12] | Plant response rating, Surinam Grass [1, 14] | Plant response rating, Surinam Grass [1, 15] | Plant response rating, Barnyardgrass [2, 14] | Corn plant response rating (corn (Zea mays); [12]) | Plant response rating, Corn (corn (Zea mays); [15]) | Crabgrass plant response rating [4, 12] | Plant response rating, Crabgrass [4, 14] | Plant response rating, Crabgrass [4, 15] | Plant response rating, Foxtail, Giant [5, 14] | Plant response rating, Foxtail, Giant [5, 15] | Plant response rating, Velvetleaf [9, 14] | Wheat plant response rating [10, 12] | Plant response rating, Wheat [10, 14] | Plant response rating, Wheat [10, 15] | Blackgrass plant response rating [11] | Oat, Wild plant response rating (wild oat (Avena fatua))
10: Plant response rating, Cocklebur [3, 14] | Plant response rating, Morningglory [7, 14]
80: Plant response rating, Barnyardgrass [2, 13] | Lambsquarters plant response rating [6]
30: Plant response rating, Surinam Grass [1, 13] | Barnyardgrass plant response rating [2, 12] | Plant response rating, Barnyardgrass [2, 15] | Plant response rating, Velvetleaf [9, 15]
60: Plant response rating, Cocklebur [3, 13] | Plant response rating, Cocklebur [3, 15] | Plant response rating, Corn (corn (Zea mays); [13]) | Plant response rating, Crabgrass [4, 13] | Plant response rating, Foxtail, Giant [5, 13] | Pigweed plant response rating [8, 12]
90: Plant response rating, Lambsquarters [6] | Morningglory plant response rating [7, 12] | Plant response rating, Morningglory [7, 13] | Plant response rating, Pigweed [8, 13]
20: Plant response rating, Wheat [10, 13] | Plant response rating, Oat, Wild (wild oat (Avena fatua))
100: Plant response rating, Morningglory [7, 15]
40: Cocklebur plant response rating [3, 12] | Foxtail, Giant plant response rating [5, 12] | Velvetleaf plant response rating [9, 12]
